Laboratory results as given in patent publication US20210403485A1, “PYRAZOLOPYRIMIDINE DERIVATIVE AS SELECTIVE TRK INHIBITOR” (SHANDONG LUYE PHARMACEUTICAL CO., LTD., priority 2018, published 2021).
Like-named read-outs stand apart in the source and are kept apart here.

How the values were obtained:
Ros1 = target: T1, Ros1 (Homo sapiens, UniProt P08922); assay: Kinase inhibitory activity (33P-ATP, filtration-binding method, Reaction Biology Corp.); type: biochemical; settings: read-out: Half maximal inhibitory concentration IC50 for kinases, Ros1
T1 construct: purchased Reaction Biology Corp
Procedure: (§1) The mixture was incubated at room temperature for 20 minutes, added with ^33P-ATP at a certain concentration to start the reaction, and then incubated at room temperature for 120 minutes. Finally, the radioactivity of the reactant was detected by the filtration-binding method. The final kinase activity was expressed as the ratio of the remaining kinase activity in the test sample to the kinase activity of the DMSO control. The dose-response curves were fitted and IC50 values were calculated by GraphPad software.

TrkA-G667C = target: T2, TrkA-G667C (Homo sapiens, UniProt P04629, G667C); assay: as above; type: biochemical; settings: read-out: Half maximal inhibitory concentration IC50 for kinases, TrkA-G667C
T2 construct: purchased Reaction Biology Corp
Procedure: as §1

TrkA-G595R = target: T3, TrkA-G595R (Homo sapiens, UniProt P04629, G595R); assay: as above; type: biochemical; settings: read-out: Half maximal inhibitory concentration IC50 for kinases, TrkA-G595R
T3 construct: purchased Reaction Biology Corp
Procedure: as §1

TrkC = target: T4, TrkC (Homo sapiens, UniProt Q16288); assay: as above; type: biochemical; settings: read-out: Half maximal inhibitory concentration IC50 for kinases, TrkC
T4 construct: purchased Reaction Biology Corp
Procedure: as §1

TrkA = target: T5, TrkA (Homo sapiens, UniProt P04629); assay: as above; type: biochemical; settings: read-out: Half maximal inhibitory concentration IC50 for kinases, TrkA
T5 construct: purchased Reaction Biology Corp
Procedure: as §1

ALK = target: T6, ALK (Homo sapiens, UniProt Q9UM73); assay: as above; type: biochemical; settings: read-out: Half maximal inhibitory concentration IC50 for kinases, ALK
T6 construct: purchased Reaction Biology Corp
Procedure: as §1

[1] = Pharmacokinetic test of compounds in mice (plasma, LC/MS/MS); type: in vivo, male CD-1 mice; settings: for Cmax: read-out: Peak concentration Cmax; for AUC(0-t): read-out: Area under the curve AUC0-last
Procedure: (§2) Experimental purpose: male CD-1 mice aged 7-9 weeks were selected as test animals, and the drug concentrations of the compounds in plasma at different time points after single intravenous injection (IV) and intragastric administration (PO) of the compounds were measured by an LC/MS/MS method, so that the pharmacokinetic behavior of the compounds disclosed herein in mice was studied, and the pharmacokinetic characteristic of the compounds was evaluated.
(§3) Drug preparation: the compounds were all prepared into clear solution by taking 5% DMSO+10% solutol+85% water as vehicle, and were used for administration in IV and PO groups. The dose of each compound administered was: IV, 3 mg/kg; PO, 10 mg/kg.

[2] = Pharmacokinetic test of compounds in rats (plasma, LC/MS/MS); type: in vivo, male SD rats
Procedure: as §2, with “SD rats” for “CD-1 mice”, “rats” for “mice”
as §3

BaF3 ETV6-NTRK3-WT = target: T7, BaF3 ETV6-NTRK3-WT (Homo sapiens, UniProt Q16288); assay: Inhibitory activity against cell proliferation (CellTiter-Glo, 72 hours); type: cell-based; settings: read-out: Half maximal inhibitory concentration IC50 of cells, BaF3 ETV6-NTRK3-WT
T7 construct: fused on or other part: N-terminal part of ETV6 (TEL) as fusion partner (part of the key); P41212 (Transcription factor ETV6)
Procedure: (§4) Adenosine Triphosphate (ATP) is an energy carrier commonly used in various life activities in nature, and is the minimum unit for energy storage and transfer. The CellTiter-Glo™ cell viability assay kit uses luciferase as an assay agent, which requires the involvement of ATP in luminescence. The CellTiter-Glo™ reagent is added into cell culture medium to measure the luminescence value. The luminescence signal is directly proportional to the amount of ATP in the system, and the ATP is positively correlated with the number of viable cells. Therefore, the proliferation of cells can be detected by detecting the ATP content using the CellTiter-Glo kit.
(§5) a) Cells in the logarithmic growth phase were collected and counted using a […]. The cell viability was detected by the trypan blue exclusion method, and the cell viability was kept over 90%.
(§6) b) The cell concentration was adjusted; 90 μL of the cell suspension was added to a 96-well plate.
(§7) a) A 10-fold compound solution was prepared, with the highest concentration being 10 μM (a total of 9 concentrations, 3-fold dilution). 10 μL of compound solution was added to each well of a 96-well plate inoculated with cells, and three duplicate wells were set for each compound concentration.
(§8) a) The CTG reagent was thawed and the cell plate was equilibrated to room temperature for 30 minutes.
(§9) b) An equal volume of CTG solution was added to each well.
(§10) c) The plate was shaken on an orbital shaker for 5 minutes to lyse the cells.
(§11) d) The cell plate was placed at room temperature for 20 minutes to stabilize the luminescence signal.
(§12) e) The luminescence value was read.
(§13) The data were analyzed using GraphPad Prism 5.0 software, fitted with nonlinear S-curve regression to give dose-response curves, and IC50 values were calculated therefrom.

Ba/F3 LMNA-NTRK1-WT = target: T8, Ba/F3 LMNA-NTRK1-WT (Homo sapiens, UniProt P04629); assay: as above; type: cell-based; settings: read-out: Half maximal inhibitory concentration IC50 of cells, Ba/F3 LMNA-NTRK1-WT
T8 construct: fused on or other part: N-terminal part of LMNA as fusion partner (part of the key); P02545 (Prelamin-A/C)
Procedure: as §4, §5, §6, §7, §8, §9, §10, §11, §12, §13

Ba/F3 LMNA-NTRK1-F589L = target: T9, Ba/F3 LMNA-NTRK1-F589L (Homo sapiens, UniProt P04629, F589L, cells depend on it); assay: as above; type: cell-based; settings: read-out: Half maximal inhibitory concentration IC50 of cells, Ba/F3 LMNA-NTRK1-F589L
T9 construct: fused on or other part: N-terminal part of LMNA as fusion partner (part of the key); P02545 (Prelamin-A/C)
Procedure: as §4, §5, §6, §7, §8, §9, §10, §11, §12, §13

BaF3 LMNA-NTRK1-G667A = target: T10, BaF3 LMNA-NTRK1-G667A (Homo sapiens, UniProt P04629, G667A, cells depend on it); assay: as above; type: cell-based; settings: read-out: Half maximal inhibitory concentration IC50 of cells, BaF3 LMNA-NTRK1-G667A
T10 construct: fused on or other part: N-terminal part of LMNA as fusion partner (part of the key); P02545 (Prelamin-A/C)
Procedure: as §4, §5, §6, §7, §8, §9, §10, §11, §12, §13

BaF3 LMNA-NTRK1-G595R = target: T11, BaF3 LMNA-NTRK1-G595R (Homo sapiens, UniProt P04629, G595R, cells depend on it); assay: as above; type: cell-based; settings: read-out: Half maximal inhibitory concentration IC50 of cells, BaF3 LMNA-NTRK1-G595R
T11 construct: fused on or other part: N-terminal part of LMNA as fusion partner (part of the key); P02545 (Prelamin-A/C)
Procedure: as §4, §5, §6, §7, §8, §9, §10, §11, §12, §13

BaF3 ETV6-NTRK3-G623R = target: T12, BaF3 ETV6-NTRK3-G623R (Homo sapiens, UniProt Q16288, G623R, cells depend on it); assay: as above; type: cell-based; settings: read-out: Half maximal inhibitory concentration IC50 of cells, BaF3 ETV6-NTRK3-G623R
T12 construct: fused on or other part: N-terminal part of ETV6 (TEL) as fusion partner (part of the key); P41212 (Transcription factor ETV6)
Procedure: as §4, with “kit. In this test, the cell lines used are Ba/F3 LMNA-NTRK1-WT, Ba/F3 LMNA-NTRK1-F589L, BaF3 LMNA-NTRK1-G595R, BaF3 LMNA-NTRK1-G667A, BaF3 ETV6-NTRK3-WT, BaF3 ETV6-NTRK3-G623R, and Ba/F3 SLC34A2-ROS1-WT stable cell strains, 5000 cells/well.” for “kit.”
as §5, §6
c) Cells in the 96-well plate were incubated overnight at 37° C. with 5% CO2 and 95% humidity.
as §7
b) The cells in the 96-well plate added with compound were incubated for 72 hours at 37° C. with 5% CO2 and 95% humidity, followed by the CTG (CellTiter-Glo) analysis.
as §8, §9, §10, §11, §12, §13

Ba/F3 SLC34A2-ROS1-WT = target: T13, Ba/F3 SLC34A2-ROS1-WT (Homo sapiens, UniProt P08922); assay: as above; type: cell-based; settings: read-out: Half maximal inhibitory concentration IC50 of cells, Ba/F3 SLC34A2-ROS1-WT
T13 construct: fused on or other part: N-terminal part of SLC34A2 as fusion partner (part of the key); O95436 (Sodium-dependent phosphate transport protein 2B)
Procedure: as §4, §5, §6, §7, §8, §9, §10, §11, §12, §13

[3] = male, CD-1, mouse, plasma, PO, 10 mg/kg

T9 sequence (P04629 whole entry F589L, the tested form may be a part): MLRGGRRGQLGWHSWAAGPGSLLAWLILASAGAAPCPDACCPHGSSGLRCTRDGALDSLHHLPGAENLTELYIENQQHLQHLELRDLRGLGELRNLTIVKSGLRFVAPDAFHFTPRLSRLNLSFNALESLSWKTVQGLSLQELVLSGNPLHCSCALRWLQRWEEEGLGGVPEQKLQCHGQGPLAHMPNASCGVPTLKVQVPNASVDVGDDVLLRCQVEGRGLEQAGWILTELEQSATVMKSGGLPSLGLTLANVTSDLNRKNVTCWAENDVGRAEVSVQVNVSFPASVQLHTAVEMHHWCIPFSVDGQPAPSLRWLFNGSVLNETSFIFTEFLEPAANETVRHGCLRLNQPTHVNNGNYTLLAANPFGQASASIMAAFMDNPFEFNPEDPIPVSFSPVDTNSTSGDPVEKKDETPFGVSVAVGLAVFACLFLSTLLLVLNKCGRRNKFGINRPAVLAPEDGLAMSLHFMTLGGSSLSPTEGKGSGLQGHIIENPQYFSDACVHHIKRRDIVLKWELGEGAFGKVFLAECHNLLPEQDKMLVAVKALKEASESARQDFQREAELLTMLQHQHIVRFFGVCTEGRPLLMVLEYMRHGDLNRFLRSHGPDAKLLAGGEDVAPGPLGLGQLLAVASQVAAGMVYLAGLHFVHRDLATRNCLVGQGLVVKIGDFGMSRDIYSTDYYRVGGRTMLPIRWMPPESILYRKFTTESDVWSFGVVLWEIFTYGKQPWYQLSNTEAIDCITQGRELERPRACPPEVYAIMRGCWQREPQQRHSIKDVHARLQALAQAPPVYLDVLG
T12 sequence (Q16288 whole entry G623R, the tested form may be a part): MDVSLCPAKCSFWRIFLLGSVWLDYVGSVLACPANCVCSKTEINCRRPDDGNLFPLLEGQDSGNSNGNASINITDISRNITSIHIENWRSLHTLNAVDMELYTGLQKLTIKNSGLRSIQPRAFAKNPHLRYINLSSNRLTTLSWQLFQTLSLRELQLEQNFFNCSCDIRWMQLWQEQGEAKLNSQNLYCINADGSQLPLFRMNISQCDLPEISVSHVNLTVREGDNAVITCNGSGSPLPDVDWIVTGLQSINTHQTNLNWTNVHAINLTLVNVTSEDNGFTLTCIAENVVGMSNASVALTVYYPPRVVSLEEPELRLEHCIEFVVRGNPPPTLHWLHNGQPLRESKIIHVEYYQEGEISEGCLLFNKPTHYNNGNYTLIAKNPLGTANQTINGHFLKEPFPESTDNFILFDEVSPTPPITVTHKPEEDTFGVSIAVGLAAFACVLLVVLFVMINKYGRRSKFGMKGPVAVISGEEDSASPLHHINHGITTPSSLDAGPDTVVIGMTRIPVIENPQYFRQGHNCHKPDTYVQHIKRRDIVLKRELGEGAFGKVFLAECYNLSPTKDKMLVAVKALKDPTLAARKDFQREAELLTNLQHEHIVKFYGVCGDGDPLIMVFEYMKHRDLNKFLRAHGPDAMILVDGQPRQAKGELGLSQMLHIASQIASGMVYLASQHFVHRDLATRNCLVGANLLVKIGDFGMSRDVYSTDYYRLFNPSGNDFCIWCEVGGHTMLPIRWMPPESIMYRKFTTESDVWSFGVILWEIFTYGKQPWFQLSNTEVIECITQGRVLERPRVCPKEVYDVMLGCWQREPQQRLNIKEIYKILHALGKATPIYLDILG
T10 sequence (P04629 whole entry G667A, the tested form may be a part): as the sequence (P04629 whole entry F589L, the tested form may be a part) above, with L589F, G667A counted along it
T11 sequence (P04629 whole entry G595R, the tested form may be a part): as the sequence (P04629 whole entry F589L, the tested form may be a part) above, with L589F, G595R counted along it
T5 sequence (P04629 33-796): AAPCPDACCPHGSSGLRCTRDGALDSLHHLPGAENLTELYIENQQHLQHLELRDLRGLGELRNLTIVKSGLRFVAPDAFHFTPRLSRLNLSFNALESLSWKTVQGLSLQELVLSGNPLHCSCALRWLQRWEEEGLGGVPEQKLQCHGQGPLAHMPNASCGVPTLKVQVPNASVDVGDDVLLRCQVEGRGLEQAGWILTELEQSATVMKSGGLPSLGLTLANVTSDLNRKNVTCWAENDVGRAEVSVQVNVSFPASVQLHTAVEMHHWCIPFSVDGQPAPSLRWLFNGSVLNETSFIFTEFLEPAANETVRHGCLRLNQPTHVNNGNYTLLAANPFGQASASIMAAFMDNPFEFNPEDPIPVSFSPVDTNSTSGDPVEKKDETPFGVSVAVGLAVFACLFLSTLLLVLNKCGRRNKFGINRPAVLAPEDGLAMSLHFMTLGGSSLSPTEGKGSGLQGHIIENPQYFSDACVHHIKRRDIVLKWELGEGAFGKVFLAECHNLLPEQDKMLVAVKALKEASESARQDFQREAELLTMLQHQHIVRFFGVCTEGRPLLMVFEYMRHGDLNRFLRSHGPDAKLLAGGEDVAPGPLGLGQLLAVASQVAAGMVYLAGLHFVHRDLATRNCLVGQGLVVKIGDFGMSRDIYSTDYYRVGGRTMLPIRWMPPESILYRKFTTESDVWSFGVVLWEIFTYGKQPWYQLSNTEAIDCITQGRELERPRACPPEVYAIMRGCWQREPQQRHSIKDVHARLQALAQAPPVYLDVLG
T7 sequence (Q16288 whole entry, stated change not applied, the tested form may be a part): as the sequence (Q16288 whole entry G623R, the tested form may be a part) above, with R623G counted along it

Row | Compound | IC50 (Ros1) [nM] | IC50 (TrkA-G667C) [nM] | IC50 (TrkA-G595R) [nM] | IC50 (TrkC) [nM] | IC50 (TrkA) [nM] | IC50 (ALK) [nM] | Apparent clearance Cl ([1]; IV, 3 mg/kg) [mL/min/kg] | GI50 (BaF3 ETV6-NTRK3-WT) [nM] | GI50 (Ba/F3 LMNA-NTRK1-WT) [nM] | GI50 (Ba/F3 LMNA-NTRK1-F589L) [nM] | GI50 (BaF3 LMNA-NTRK1-G667A) [nM] | GI50 (BaF3 LMNA-NTRK1-G595R) [nM] | GI50 (BaF3 ETV6-NTRK3-G623R) [nM] | GI50 (Ba/F3 SLC34A2-ROS1-WT) [nM] | further results
1 | C[C@H]1CNC(=O)c2cnn3ccc(nc23)N2CCOC[C@@H]2c2cc(F)cnc2O1 [WX004B] | 8.1 | 18.2 | 2.7 | 0.3 | 2.7 | 134 | 8.14 | 1.5 | 0.8 | 37.4 | 3.9 | 1.2 | 3.2 | – | Apparent volume of distribution Vd ([1]; IV, 3 mg/kg): 0.60 L/kg; Area under the curve AUC0-last ([1]; IV, 3 mg/kg): 15.393 µM·h; Half-life T1/2 ([1]; IV, 3 mg/kg): 63 min; Area under the curve AUC0-last ([1]; PO, 10 mg/kg): 37.294 µM·h; Bioavailability F % ([1]; PO, 10 mg/kg): 73%; Time to peak Tmax ([1]; PO, 10 mg/kg): 30 min; Cmax ([1]; PO, 10 mg/kg): 11.1 µM; Apparent clearance Cl ([2]; IV, 3 mg/kg): 30.9 mL/min/kg; Apparent volume of distribution Vd ([2]; IV, 3 mg/kg): 1.4 L/kg; Area under the curve AUC0-last ([2]; IV, 3 mg/kg): 4.076 µM·h; Half-life T1/2 ([2]; IV, 3 mg/kg): 36 min; Area under the curve AUC0-last ([2]; PO, 10 mg/kg): 4.715 µM·h; Bioavailability F % ([2]; PO, 10 mg/kg): 35%; Time to peak Tmax ([2]; PO, 10 mg/kg): 48 min; Cmax ([2]; PO, 10 mg/kg, read-out: Peak concentration Cmax): 1.77 µM
2 | O=C1N[C@@H]2COC[C@@H]2Oc2ncc(F)cc2C2COCCN2c2ccn3ncc1c3n2 (stereo partly shown) [WX005A] | – | – | – | – | – | – | 9.78 | 2.9 | 0.7 | 56.6 | 3.8 | 5.2 | 11 | 246 | Vd ([1]; male, CD-1, mouse, plasma, IV, 3 mg/kg, read-out: Apparent volume of distribution Vd): 0.78 L/kg; AUC(0-t) ([1]; male, CD-1, mouse, plasma, IV, 3 mg/kg): 12 µM·h; half-life ([1]; male, CD-1, mouse, plasma, IV, 3 mg/kg, read-out: Half-life T1/2 (converted)): 61.2 min; AUC(0-t) [1, 3]: 21.4 µM·h; bioavailability ([1]; male, CD-1, mouse, plasma, PO, 10 mg/kg, read-out: Bioavailability F %): 54%; Cmax [1, 3]: 7.12 µM; Tmax ([1]; male, CD-1, mouse, plasma, PO, 10 mg/kg, read-out: Time to peak Tmax): 22.8 min
3 | O=C1N[C@@H]2COC[C@@H]2Oc2ncc(F)cc2[C@H]2COCCN2c2ccn3ncc1c3n2 [WX005A] | 3.1 | 0.5 | 0.3 | 0.1 | 4.7 | 103 | – | – | – | – | – | – | – | – | –
4 | O=C1N[C@@H]2COC[C@@H]2Oc2ncc(F)cc2[C@@H]2COCCN2c2ccn3ncc1c3n2 [WX005B] | – | – | – | – | > 1000 | – | – | – | – | – | – | – | – | – | –
5 | C[C@@H]1COC[C@@H]2c3cc(F)cnc3OCC3(CC3)NC(=O)c3cnn4ccc(nc34)N12 [WX007] | 2.2 | 0.1 | 0.2 | 0.1 | 0.6 | 901 | – | 4.1 | 0.9 | 100 | 1.2 | 6.4 | 13.1 | 770 | –
6 | O=C1NC2(CC2)COc2ncc(F)cc2[C@@H]2CCOCCN2c2ccn3ncc1c3n2 [WX009B] | – | – | – | – | > 1000 | – | – | – | – | – | – | – | – | – | –
